Experimental data: patent US20230372346A1, “TREATMENT REGIMENS FOR EXON-20 INSERTION MUTANT EGFR CANCERS” (CULLINAN PEARL CORP., priority 2020, published 2023)
“Also recorded” adds a separate entry of the source. Like-named read-outs stand apart in the source and are kept apart here.

Columns and labels:
[1] = tested on: cells expressing EGFR with exon 20 insertion mutations; conditions: cells expressing EGFR with exon 20 insertion mutations compared with cells expressing WT EGFR; cited from earlier work
[2] = biological target: WT EGFR (Homo sapiens, UniProt P00533); conditions: cited from earlier work
WT EGFR, sequence (P00533 25-1210): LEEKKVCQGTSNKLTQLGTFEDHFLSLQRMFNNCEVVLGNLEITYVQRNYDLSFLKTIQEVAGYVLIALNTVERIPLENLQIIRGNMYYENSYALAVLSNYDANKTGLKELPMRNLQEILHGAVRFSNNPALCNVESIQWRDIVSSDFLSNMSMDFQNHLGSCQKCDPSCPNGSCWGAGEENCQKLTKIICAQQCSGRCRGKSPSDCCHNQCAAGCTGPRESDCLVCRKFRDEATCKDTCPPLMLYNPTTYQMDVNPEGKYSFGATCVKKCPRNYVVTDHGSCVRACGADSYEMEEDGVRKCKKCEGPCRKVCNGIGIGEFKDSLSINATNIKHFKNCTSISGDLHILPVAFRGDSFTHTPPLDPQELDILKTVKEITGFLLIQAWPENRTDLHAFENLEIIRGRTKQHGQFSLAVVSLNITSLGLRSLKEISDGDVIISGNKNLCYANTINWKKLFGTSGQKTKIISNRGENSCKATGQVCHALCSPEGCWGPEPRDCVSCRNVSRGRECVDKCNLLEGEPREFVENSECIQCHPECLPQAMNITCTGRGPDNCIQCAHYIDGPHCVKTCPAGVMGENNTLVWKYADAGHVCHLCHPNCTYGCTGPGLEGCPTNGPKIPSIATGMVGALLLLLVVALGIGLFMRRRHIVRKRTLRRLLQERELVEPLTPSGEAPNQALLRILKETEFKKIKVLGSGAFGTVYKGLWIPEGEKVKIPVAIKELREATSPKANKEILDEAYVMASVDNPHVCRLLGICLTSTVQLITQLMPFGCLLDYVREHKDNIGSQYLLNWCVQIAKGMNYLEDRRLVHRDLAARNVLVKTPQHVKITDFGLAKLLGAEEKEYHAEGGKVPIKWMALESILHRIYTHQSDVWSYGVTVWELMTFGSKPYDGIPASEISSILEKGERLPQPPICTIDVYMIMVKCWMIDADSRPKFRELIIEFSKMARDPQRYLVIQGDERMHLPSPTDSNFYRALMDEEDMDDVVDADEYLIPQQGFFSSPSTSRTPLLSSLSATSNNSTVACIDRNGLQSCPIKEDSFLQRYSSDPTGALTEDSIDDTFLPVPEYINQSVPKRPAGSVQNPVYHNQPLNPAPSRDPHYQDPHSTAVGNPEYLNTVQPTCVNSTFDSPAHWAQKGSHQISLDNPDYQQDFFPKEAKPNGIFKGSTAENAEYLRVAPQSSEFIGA

[3] = tested on: mutant EGFRs that possess mutations at L792 (L792H, L792F, L792Y) in exon 20 in combination with ex19del+T790M or L858R+T790M; conditions: cited from earlier work
[4] = tested on: subcutaneously-implanted tumors expressing EGFR with G719A+T790M mutations; conditions: cited from earlier work
[5] = tested on: Ba/F3 harboring wild type EGFR; conditions: cited from earlier work
[6] = tested on: NSCLC cell lines harboring mutant EGFR; conditions: LXF 2478 and NCI-H1975 EGFR D770_N771insSVD cells; with inhibition of EGFR phosphorylation and induction of caspase 3/7; cited from earlier work
[7] = tested on: mutant EGFRs that possess mutations in exon 18 or exon 21; conditions: cited from earlier work
[8] = tested on: mutant EGFRs that possess in-frame insertion mutations in exon 20; conditions: A763_Y764insFQEA, V769_D770insASV, D770_N771insG, D770_N771insSVD, H773_V774insNPH, H773_V774insPH; cited from earlier work
[9] = tested on: mutant EGFRs that possess L718Q mutation in exon 18 in combination with ex19del+T790M or L858R+T790M; conditions: cited from earlier work
[10] = tested on: EGFR and EGFR mutants that harbor an exon 20 insertion mutation; conditions: EGFR and exon 20 insertion mutants; cited from earlier work
[11] = tested on: subcutaneously-implanted tumors expressing EGFR with exon 20 insertions; conditions: cited from earlier work
[12] = tested on: NSCLC harboring EGFR exon 20 insertion mutations; test: Phase 1/2a study, antitumor activity (RECIST v1.1); assay type: in vivo, human
Method: (§1) This is a Phase 1/2a, open-label, multicenter, first-in-human trial to evaluate the safety and tolerability, PK, PD, and preliminary efficacy of CLN-081 in patients with non-small cell lung cancer (NSCLC) harboring epidermal growth factor receptor (EGFR) exon 20 insertion mutations.
The antitumor activity of study treatment will be assessed according to RECIST v1.1 guideline
As part of this phase 1/2 study, dose levels including 30, 45, 65, 100 and 150 mg BID were explored during the escalation phases. Efficacy expansions were initiated at 30, 65 and 100 mg BID. A Phase 2a expansion was initiated at 100 mg BID after meeting protocol specified safety and efficacy criteria. Tumor assessments were performed at baseline, after 6 weeks of CLN-081 administration and every 9 weeks thereafter.

[13] = tested on: KRAS mutant cell lines, NCI-H23 cells, and NCI-H460 cells; conditions: EGFR-independent cell growth; cited from earlier work
[14] = Phase 1/2a study, pharmacokinetics; assay type: in vivo, human
Method: as §1
PK analysis has been performed with CLN-081 plasma concentrations determined at pre-dose, 0.5, 1, 2, 3, 4, 6, 8 and 24 hour % post initial dose on Cycle (C) I Day (D) I and C1D15. […] CLN-081 has typically been rapidly absorbed with tmax values ranging from 0.5 to 2 hours and a mean average terminal phase elimination half-life (t1/2) of approximately 4 hours.

[15] = tested on: phosphorylation of EGFR and its downstream effectors; conditions: cited from earlier work
[16] = baseline ex19del+T790M or L858R+T790M
[17] = G719A, G719S, G719C, E709K, E709A, L861Q
[18] = unbound, 100 mg BID, patient 0102-001
[19] = unbound, 100 mg BID, patient 0104-005
[20] = unbound, 100 mg BID, patient 0701-001

In the case of `C=CC(=O)N[C@H]1C=C(C)c2c(-c3cnc4ccccc4c3)c3c(N)ncnc3n2C1` [Compound 1, (S)—N-(4-amino-6-methyl-5-(quinolin-3-yl)-8,9-dihydropyrimido[5,4-b]indolizin-8-yl)acrylamide], the “inhibitory effect on proliferation” value [1] is given as “more potent and selective inhibitory effect”, the “inhibition against WT EGFR” value [2] is given as “moderate inhibition” and the “potency in inhibiting the phosphorylation of mutant EGFRs” value ([3]; L792H, L792F, L792Y each with ex19del+T790M or L858R+T790M) is given as “intensive cellular potency”. For the same molecule, the “absolute activity and selectivity over baseline mutations compared with osimertinib, erlotinib and Afatinib” value [3, 16] was “higher”, the tumor growth inhibition ([4]; dose-dependent) was “significant tumor growth inhibition effects” and the “body weight loss, fecal abnormalities, or skin abnormalities” value ([4]; mouse, in vivo) was “not effected at a cost of body weight loss, fecal abnormalities, or skin abnormalities”. For the same molecule, the IC50 [5] was 597 nM, the “growth of NSCLC cells with EGFR exon 20 insertions” value [6] was “suppressed the growth” and the “inhibition against EGFRs harboring T790M and either exon 18 or exon 21 mutations” value ([7]; G719A+T790M, L861Q+T790M) was “intensive inhibition”. For the same molecule, the “activity compared with erlotinib and osimertinib” value [7, 17] was “higher”, the “potency in inhibiting the phosphorylation of mutant EGFRs” value [7, 17] was “intensive cellular potency” and the “potency in inhibiting the phosphorylation of mutant EGFRs” value [8] was “intensive cellular potency”. The “potency in inhibiting the phosphorylation of mutant EGFRs” value ([9]; L718Q+ex19del+T790M or L718Q+L858R+T790M) was “intensive cellular potency”, the “absolute activity and selectivity over baseline mutations compared with osimertinib, erlotinib and Afatinib” value [9, 16] was “higher” and the “inhibition of in vitro phosphorylation activity of EGFR and EGFR mutants” value [10] was “inhibited”. For the same molecule, the antitumor efficacy ([11]; V769_D770insASV, D770_N771insSVD, H773_V774insNPH, dose-dependent) was “striking tumor growth inhibition and tumor regression effects”, the “antitumor efficacy of twice-daily versus once-daily administration” value ([11]; nude mice transplanted with NCI-H1975 EGFR D770_N771insSVD) was “not inferior” and the “Best response PR, %” value ([12]; 30 mg BID (n = 8)) was 38%. The “Best response SD, %” value ([12]; 30 mg BID (n = 8)) was 62%, the “Confirmed response, %” value ([12]; 30 mg BID (n = 8)) was 38% and the “Disease Control Rate (PR + SD ≥ 6 mo), %” value ([12]; 30 mg BID (n = 8)) was 62%. For the same molecule, the “Best response SD, %” value ([12]; 45 mg BID (n = 1)) was 100%, the “Best response PD, %” value ([12]; 65 mg BID (n = 14)) was “(7) %” and the “Best response PR, %” value ([12]; 65 mg BID (n = 14)) was “(50) %”. For the same molecule, the “Best response SD, %” value ([12]; 65 mg BID (n = 14)) was “(43) %”, the “Confirmed response, %” value ([12]; 65 mg BID (n = 14)) was “(14) %” and the “Disease Control Rate (PR + SD ≥ 6 mo), %” value ([12]; 65 mg BID (n = 14)) was “(57) %”. For the same molecule, the “Pending confirmation, %” value ([12]; 65 mg BID (n = 14)) was “(21) %”, the “Unconfirmed response, %” value ([12]; 65 mg BID (n = 14)) was “(14) %” and the “Best response PR, %” value ([12]; 100 mg BID (n = 13)) was “(54) %”. For the same molecule, the “Best response SD, %” value ([12]; 100 mg BID (n = 13)) was “(46) %”, the “Confirmed response, %” value ([12]; 100 mg BID (n = 13)) was “(46) %” and the “Disease Control Rate (PR + SD ≥ 6 mo), %” value ([12]; 100 mg BID (n = 13)) was “(69) %”. For the same molecule, the “Unconfirmed response, %” value ([12]; 100 mg BID (n = 13)) was “(8) %”, the “evaluable patients who achieved a PR” value ([12]; 100 mg BID, 7/13, 6 confirmed and 1 unconfirmed) was 54% and the “Best response PR, %” value ([12]; 150 mg BID (n = 6)) was 67%. The “Best response SD, %” value ([12]; 150 mg BID (n = 6)) was 33%, the “Confirmed response, %” value ([12]; 150 mg BID (n = 6)) was 33% and the “Disease Control Rate (PR + SD ≥ 6 mo), %” value ([12]; 150 mg BID (n = 6)) was 83%. For the same molecule, the “Pending confirmation, %” value ([12]; 150 mg BID (n = 6)) was 33%, the “objective responses (all partial responses)” value ([12]; 21 of 42 evaluable patients across dose levels) was 50% and the “response-evaluable patients who remained on treatment at the data cut-off” value ([12]; 22/42 across dose levels) was 52%. The “Disease control (PR or SD ≥6 months)” value ([12]; 27/42 across all doses) was 64%, the “patients with stable disease (SD) or PR as the best response” value ([12]; 41/42 across dose levels) was 98% and the “patients with disease progression as the best response” value ([12]; across dose levels) was “one”. The antitumor activity ([12]; heavily-pretreated patients, across EGFR Ins 20 variants and dose levels) was “encouraging antitumor activity”, the “dose cohorts in which partial responses were registered” value ([12]; in vivo) was “all dose cohorts tested so far” and the “lowest dose cohort at which partial response was reported” value ([12]; in vivo) was 30 mg BID. The “unconfirmed objective responses, patients” value ([12]; of 21 responders, including 5 pending a confirmatory scan) was 8, the “confirmed objective responses, patients” value ([12]; of the 21 patients achieving an objective response) was 13 and the “response in patients previously treated with poziotinib and TAK788 (mobocertinib)” value ([12]; some patients) was “partial responses”. For the same molecule, the GI50 [13] was greater than 3000 nM, the “change in systemic exposure levels / drug accumulation” value ([14]; C1D1 to C1D15, listed as CLN-081) was “Minimal to no increase; also recorded: no evidence of meaningful drug accumulation” and the “dose proportionality of Cmax and AUC” value ([14]; across the dose range tested) was “dose proportional increase”. For the same molecule, the half-life ([14]; human, plasma, oral, 100 mg, 100 mg BID, patient 0102-001, read-out: T1/2 (converted)) was 3.6 h, the half-life ([14]; human, plasma, oral, 100 mg, 100 mg BID, patient 0104-005, read-out: T1/2 (converted)) was 6.1 h and the half-life ([14]; human, plasma, oral, 100 mg, 100 mg BID, patient 0701-001, read-out: T1/2 (converted)) was 3.6 h. For the same molecule, the half-life ([14]; human, plasma, po, oral BID, read-out: mean average terminal phase elimination half-life (t1/2) (converted)) was roughly 4 h, the Tmax ([14]; human, plasma, oral, 30-100 mg BID) was 0.5 to 2 h and the “uAUC*” value [14, 18] was 957 ng·h/mL. For the same molecule, the uCmax [14, 18] was 260 ng/mL, the “uAUC*” value [14, 19] was 1213 ng·h/mL and the uCmax [14, 19] was 274 ng/mL. The “uAUC*” value [14, 20] was 1353 ng·h/mL, the uCmax [14, 20] was 418 ng/mL and the AUC0-8hr versus dose ([14]; unbound, 30 to 100 mg BID) was “generally increase with increasing dose”. For the same molecule, the Cmax versus dose ([14]; unbound, 30 to 100 mg BID) was “generally increase with increasing dose”, the “in vivo inhibitory effect on the phosphorylation of EGFR and its downstream effectors” value ([15]; human lung cancer xenografts harboring EGFR exon 20 insertions) was “potent and durable in vivo inhibitory effect” and the “effect on skin tissue with WT EGFR” value ([15]; in vivo) was “spares skin tissue with WT EGFR”.
